Data reported in patent US11903992B2, “Composition comprising lidocaine, l-carnosine and dexpanthenol” (Cellix Bio Private Limited, priority 2021, dated 2024).

Assays:
[1] = Stability observations during development of the formulation; format: physicochemical; conditions: during development of the oral rinse formulation
Text: In an embodiment, the composition is formulated as an oral rinse formulation. It could also be noted during development of the formulation that L-Carnosine tends to increase the pH of the composition to about 8.5, which tend to increase the degradation of lidocaine. […] During the experimentation, it could be noted that presence of a buffer (e.g. a citrate buffer) and an anti-oxidant (e.g. sodium metabisulfite) in the composition, while maintaining pH of the resultant composition/formulation around 6.5±1 (i.e. ranging from about 5.5 to about 7.5), preferably at 6.5±0.5 and more preferably, at 6.5±0.2 affords dramatic improvement in the shelf life of the composition/formulation.

[2] = pH of the formulation (pH meter); format: physicochemical; conditions: during development of the formulation; tends to increase degradation of lidocaine

Compound	stability observation of the ingredient [1]	pH of the composition as increased by L-Carnosine [2]
CC(C)(CO)[C@@H](O)C(=O)NCCCO [Dexpanthenol]	requires neutral pH for stability	–
NCCC(=O)N[C@@H](Cc1cnc[nH]1)C(=O)O [L-Carnosine]	sensitive to oxygen tend to degrade	about 8.5
